On the set-up of data set [1]: method as in PMID 20227845, PMID 19808085, PMID 23583736. The settings on record: porcine buccal mucosa; cited from earlier work.
Data set [2] in a line: Serum elimination kinetics in the mice MTR model after intravenous injection. It is filed as in vivo, ICR-CD-1 mice.
Data set [3] relates to blood-brain barrier. Nature of the data set: Blood-to-brain transport, in vivo multiple time regression (MTR) analysis. The settings on record: mice.
Procedure: Female, Institute for Cancer Research, Caesarean Derived-1 (ICR-CD-1) mice (Harlan Laboratories, Venray, Netherlands) of age 7–10 weeks and weighing 29–32 g, were used during the BBB transport experiments.
An in vivo multiple time regression (MTR) analysis was performed to investigate if spilanthol was able to cross the BBB. A dose solution of spilanthol was prepared using the Spilanthes acmella (L.) L. extract (Robertet) with a final concentration of 4 mg/ml spilanthol dissolved in 7.0 % ethanol, 2.5 % dimethylacetamide, 0.6 % tween 80 (all w/w) diluted in lactated Ringer’s solution containing 1 % BSA. The ICR-CD-1 mice were anesthetized by intraperitoneal injection with a 40 % (w/V) urethane solution (3 g/kg) and the jugular internalis vein and carotid artery were isolated, 20 μl of the spilanthol dose solution was injected into the jugular vein. Blood was obtained from the carotid artery at regular time points after injection (1, 3, 5, 10, 12.5 and 15 min, with start and end in duplicate), and the mice were immediately thereafter decapitated. After sacrificing the mice, the brains were collected. The collected blood from the carotid artery was centrifuged at 10 000 g for 15 min at 21 °C, resulting in serum. […]
Data set [4] is described as follows: Capillary depletion (distribution brain parenchyma versus capillaries). It is filed as in vivo, ICR-CD-1 mice. As to conditions: female, ICR-CD-1, mouse, iv, 80 μg per mouse, mice, 10 min after i.v. injection. The protocol: To investigate the distribution of spilanthol in the parenchyma and capillaries of the brain, a capillary depletion experiment was performed. By means of this experiment, it is possible to distinguish the transport of spilanthol into the brain (represented by the parenchyma) and part of spilanthol which is trapped by the endothelial cells of the brain (represented by the capillaries). The method of Triguero et al., as modified by Gutierrez et al., was used. Briefly, after anesthetizing the mice intraperitoneally with 40 % (w/V) urethane solution (3 g/kg), 20 μl of the 4 mg/ml spilanthol dose solution was injected into the jugular vein. Blood was collected from the abdominal aorta ten min after injection and serum was obtained by centrifuging the blood at 10 000 g during 15 min at 21 °C. Immediately after blood collection, the skin of the mice’s chest is removed to clamp the aorta and the jugular veins are severed. Immediately after clamping the aorta, the brain is perfused manually with 20 ml of Lactated Ringer’s solution. […]
The distribution was calculated as follows: Fraction%=Mtissue/Mcapillaries+Mparenchyma×100 where Mtissue represents the amount of spilanthol in the capillaries, respectively parenchyma; Mcapillaries the amount of spilanthol in the capillaries and Mparenchyma the amount of spilanthol in the parenchyma.

Details of data set [5]: method as in PMID 20227845, PMID 19808085, PMID 23583736. As to conditions: human skin, topical application; cited from earlier work.
Details of data set [6]: method as in PMID 24055064. As to conditions: source not stated; cited from earlier work.
The test system of data set [7] is blood-brain barrier. Nature of the data set: Brain-to-blood transport after intracerebroventricular injection. The settings on record: mice, ICV injection of 1 μl of 4 mg/ml dose solution. It is filed as in vivo, ICR-CD-1 mice. How it is done: (§1) To evaluate the efflux of spilanthol out of the brain, an in vivo method previously described was used. Briefly, after anesthetizing the ICR-CD-1 mice using a 40 % (w/V) urethane solution (3 g/kg), the skin of the skull was removed. Thereafter, a hole was made into the lateral ventricle using a 22 G needle marked with tape at 2 mm at the following coordinates: 1 mm lateral and 0.34 mm posterior to the bregma. 1 μl of the 4 mg/ml spilanthol dose solution as used for the blood-to-brain influx experiment was injected intracerebroventriculary (ICV) using a syringe pump (KDS100, KR analytical, Cheshire, UK) at a speed of 360 μl/h for 10 s. […] Prior to decapitation, blood was collected from the abdominal aorta. Serum was obtained by centrifuging the blood at 10 000 g during 15 min at 21 °C and brains were collected. The efflux brain half-life (t1/2,brain) (min) was calculated from the linear regression of the natural logarithm of the spilanthol concentration in brain (ng/g) versus time as follows: t1/2,brain = ln(2)/kout, where kout (min^−1) is defined as the efflux rate constant calculated as the negative value of the slope of the linear regression, applying first order kinetics.

Experiment in data set [8]: as above
Format: in vivo, ICR-CD-1 mice. The settings on record: female, ICR-CD-1, mouse, icv or intrathecal, 4 μg per mouse; mice, ICV injection, ln(2)/kout; read-out: efflux brain half-life t1/2,brain. How it is done: as §1

Here are results for one compound from publication PMC4907212, “Mucosal and blood-brain barrier transport kinetics of the plant N-alkylamide spilanthol using in vitro and in vivo models” (BMC Complementary and Alternative Medicine, 2016).

Molecules are shown by their SMILES. Where two headings read alike, the source gives them in different places.

Usually LogP stands for the decadic logarithm of the partition coefficient of the neutral form, usually between octanol and water.

For the compound `C/C=C/C=C\CC/C=C/C(=O)NCC(C)C` [spilanthol, deca-2E,6Z,8E-trienoic acid isobutylamide], the “permeability coefficient Kp,aq” value in data set [1] was 3.14 ×10⁻⁶ cm/s; in data set [5], 0.919 ×10⁻⁶ cm/s. In addition, the half-life in data set [2] (female, ICR-CD-1, iv, 80 μg per mouse, mouse serum, i.v.) is 3.16 min; in data set [8], 6.4 min. Also, the k el in data set [2] (female, ICR-CD-1, iv, 80 μg per mouse, mouse serum, i.v., one compartmental model, read-out: elimination rate constant (converted)) is 0.00367 s⁻¹. In data set [2] (mice, i.v. 20 μl of 4 mg/ml, one compartmental model), the “concentration of spilanthol at time zero in serum” value is 3050 ng/mL. Further, the “toxicity during the experiment” value with blood-brain barrier [3] (i.v. spilanthol dose solution with ethanol, dimethylacetamide, tween 80) is “no toxicity was observed”. Besides, in the data set with blood-brain barrier [3] (i.v., MTR), the “exposure time at which brain/serum ratio curve reached a plateau-phase” value was “about 10 min”. Moreover, the Kp at 10 min in data set [4] (brain capillaries/serum, read-out: spilanthol in brain capillaries (brain/serum ratio)) is 0.0024; in data set [4] (brain parenchyma/serum, read-out: spilanthol in brain parenchyma (brain/serum ratio)), 0.138. Besides, in data set [6], the log partition coefficient (LogP) is given as 3.39. Also, in the data set on blood-brain barrier [7], the “efflux transfer constant kout” value worked out at 0.11 min⁻¹.
